One test deals with T1, FLT3(K663Q) (Homo sapiens, UniProt P36888, K663Q).
T1 sequence (P36888 1-993 K663Q): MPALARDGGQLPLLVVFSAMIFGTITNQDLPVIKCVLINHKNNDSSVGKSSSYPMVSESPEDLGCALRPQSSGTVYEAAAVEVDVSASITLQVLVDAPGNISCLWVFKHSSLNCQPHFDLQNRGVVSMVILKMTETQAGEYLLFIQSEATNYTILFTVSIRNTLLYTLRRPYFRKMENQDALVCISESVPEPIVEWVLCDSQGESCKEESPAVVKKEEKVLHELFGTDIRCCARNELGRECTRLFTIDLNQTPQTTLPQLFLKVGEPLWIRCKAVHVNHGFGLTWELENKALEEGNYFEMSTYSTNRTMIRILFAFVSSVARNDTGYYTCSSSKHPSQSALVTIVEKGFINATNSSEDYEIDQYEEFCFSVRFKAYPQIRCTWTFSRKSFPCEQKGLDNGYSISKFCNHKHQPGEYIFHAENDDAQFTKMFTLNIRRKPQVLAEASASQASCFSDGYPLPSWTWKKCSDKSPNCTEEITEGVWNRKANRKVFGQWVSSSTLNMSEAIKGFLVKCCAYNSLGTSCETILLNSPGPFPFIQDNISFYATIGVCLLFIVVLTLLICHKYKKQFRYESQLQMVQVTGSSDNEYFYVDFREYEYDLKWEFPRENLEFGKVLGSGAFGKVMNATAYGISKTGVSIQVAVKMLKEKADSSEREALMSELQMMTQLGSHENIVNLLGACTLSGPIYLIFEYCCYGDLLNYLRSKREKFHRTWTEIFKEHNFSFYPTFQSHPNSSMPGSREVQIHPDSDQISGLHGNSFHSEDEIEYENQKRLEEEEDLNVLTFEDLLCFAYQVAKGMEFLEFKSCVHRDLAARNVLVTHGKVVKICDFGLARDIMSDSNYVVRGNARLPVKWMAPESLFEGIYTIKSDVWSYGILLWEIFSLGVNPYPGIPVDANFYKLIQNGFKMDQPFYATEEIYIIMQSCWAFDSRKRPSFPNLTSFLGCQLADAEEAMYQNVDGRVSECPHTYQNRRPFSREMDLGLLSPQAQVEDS
Nature of the test: biochemical. Set-up: DiscoveRx KINOMEscan active site-directed competition binding; percent of control kinase bound to immobilised ligand.

The next test concerns the target T2, YSK4 (Homo sapiens, UniProt Q56UN5).
T2 construct: gene MAP3K19
T2 sequence (Q56UN5 1-1328): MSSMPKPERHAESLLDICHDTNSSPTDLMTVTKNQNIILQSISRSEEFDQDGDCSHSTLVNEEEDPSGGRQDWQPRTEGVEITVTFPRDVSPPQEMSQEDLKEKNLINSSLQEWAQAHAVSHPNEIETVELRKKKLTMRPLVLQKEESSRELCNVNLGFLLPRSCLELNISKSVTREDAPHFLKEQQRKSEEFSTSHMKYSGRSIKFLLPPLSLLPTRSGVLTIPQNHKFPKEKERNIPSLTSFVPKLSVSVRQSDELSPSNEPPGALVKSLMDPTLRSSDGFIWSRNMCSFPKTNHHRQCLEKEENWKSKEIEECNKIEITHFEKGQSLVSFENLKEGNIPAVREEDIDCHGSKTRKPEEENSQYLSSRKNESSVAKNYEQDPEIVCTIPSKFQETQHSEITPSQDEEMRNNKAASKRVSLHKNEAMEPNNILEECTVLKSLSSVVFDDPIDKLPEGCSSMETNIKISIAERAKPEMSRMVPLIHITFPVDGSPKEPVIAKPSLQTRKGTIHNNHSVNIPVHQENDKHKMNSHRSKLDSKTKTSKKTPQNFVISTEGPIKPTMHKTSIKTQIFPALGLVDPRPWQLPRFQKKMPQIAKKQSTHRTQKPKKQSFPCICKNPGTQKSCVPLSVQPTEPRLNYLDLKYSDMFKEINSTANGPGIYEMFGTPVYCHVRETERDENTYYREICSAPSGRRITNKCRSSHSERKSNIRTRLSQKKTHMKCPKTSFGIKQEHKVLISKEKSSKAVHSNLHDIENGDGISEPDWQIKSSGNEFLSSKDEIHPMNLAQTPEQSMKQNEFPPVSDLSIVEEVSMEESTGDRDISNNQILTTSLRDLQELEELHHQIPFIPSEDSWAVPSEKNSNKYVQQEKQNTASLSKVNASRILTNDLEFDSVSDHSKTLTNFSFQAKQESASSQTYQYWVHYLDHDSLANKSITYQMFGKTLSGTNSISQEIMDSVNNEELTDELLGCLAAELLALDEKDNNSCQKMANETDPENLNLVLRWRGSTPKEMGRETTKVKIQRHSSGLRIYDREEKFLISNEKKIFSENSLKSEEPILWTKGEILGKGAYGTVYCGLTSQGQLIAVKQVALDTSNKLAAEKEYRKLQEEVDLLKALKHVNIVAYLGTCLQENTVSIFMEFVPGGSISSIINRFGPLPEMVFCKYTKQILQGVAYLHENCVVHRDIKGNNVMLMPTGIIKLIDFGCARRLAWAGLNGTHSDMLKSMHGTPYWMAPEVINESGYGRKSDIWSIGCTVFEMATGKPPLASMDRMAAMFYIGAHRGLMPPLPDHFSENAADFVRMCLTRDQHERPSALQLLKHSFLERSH
Description: biochemical. Further details: DiscoveRx KINOMEscan active site-directed competition binding; percent of control kinase bound to immobilised ligand.

Where [1] appears, read: read-out: Talazoparib (BMN 673) / %Ctrl @ 10000nM.
[2] abbreviates: read-out: Niraparib (MK-4827) / %Ctrl @ 10000nM.
The mark [3] stands for this setting: read-out: Olaparib / %Ctrl @ 10000nM.

Read-outs that look alike come from different tables or passages of the source.

With `CNCc1ccc(-c2[nH]c3cc(F)cc4c3c2CCNC4=O)cc1` [Rucaparib], at FLT3(K663Q) (binding competition, % of control), the “Rucaparib / %Ctrl @ 10000nM” value was 93%. The percent of control binding at 10 µM on YSK4 (read-out: Rucaparib / %Ctrl @ 10000nM, binding competition, % of control) turned out to be 58%.

Turning to `Cn1ncnc1[C@H]1c2n[nH]c(=O)c3cc(F)cc(c23)N[C@@H]1c1ccc(F)cc1` [Talazoparib], the percent of control binding at 10 µM at FLT3(K663Q) (setting [1]) was 91%; on YSK4 (setting [1]), 89%.

As to `NC(=O)c1cccc2cn(-c3ccc([C@@H]4CCCNC4)cc3)nc12` [Niraparib], the percent of control binding at 10 µM on FLT3(K663Q) (setting [2]) was found to be 75%; on YSK4 (setting [2]), 63%.

For `O=C(c1cc(Cc2n[nH]c(=O)c3ccccc23)ccc1F)N1CCN(C(=O)C2CC2)CC1` [Olaparib], the percent of control binding at 10 µM is 88% on FLT3(K663Q) (setting [3]) and 65% on YSK4 (setting [3]).

The record behind these values is article PMC7026418, “The kinase polypharmacology landscape of clinical PARP inhibitors” (Scientific Reports, 2020).
